Results from ChEMBL document CHEMBL4261565, “A systematic analysis of atomic protein-ligand interactions in the PDB” (Medchemcomm, 2017).

These molecules were tested against Coagulation factor X (Homo sapiens, UniProt P00742) (assay: Inhibition of human factor 10a using […] as substrate by spectrophotometric method).
Chain of Coagulation factor X (P00742 41-179 limits assumed): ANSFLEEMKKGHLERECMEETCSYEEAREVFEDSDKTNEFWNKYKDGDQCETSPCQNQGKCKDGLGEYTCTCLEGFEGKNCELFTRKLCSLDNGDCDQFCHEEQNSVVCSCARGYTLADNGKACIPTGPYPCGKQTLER
Chain of Coagulation factor X (P00742 235-488 limits assumed): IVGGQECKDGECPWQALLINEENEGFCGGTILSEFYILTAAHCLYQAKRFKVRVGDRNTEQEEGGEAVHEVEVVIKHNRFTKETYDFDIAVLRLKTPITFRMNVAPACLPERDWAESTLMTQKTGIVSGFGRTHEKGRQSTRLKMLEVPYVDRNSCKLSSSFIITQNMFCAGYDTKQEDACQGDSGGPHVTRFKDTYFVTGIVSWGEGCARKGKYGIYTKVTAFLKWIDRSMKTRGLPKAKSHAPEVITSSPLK

| Ki [nM] | SMILES |
| --- | --- |
| 9 | C[N+](C)(C)CCCN1C(=O)[C@@H]2[C@H](C1=O)[C@H](c1cc(-c3ccc(Cl)s3)on1)N1CCC[C@@H]21 (racemic) |
| 911 | CNCCCN1C(=O)[C@@H]2[C@H](C1=O)[C@H](c1cc(-c3ccc(Cl)s3)on1)N1CCC[C@@H]21 (racemic) |
| 56 | CN(C)CCCN1C(=O)[C@@H]2[C@H](C1=O)[C@H](c1cc(-c3ccc(Cl)s3)on1)N1CCC[C@@H]21 (racemic) |
| 9800 | NCCCN1C(=O)[C@@H]2[C@H](C1=O)[C@H](c1cc(-c3ccc(Cl)s3)on1)N1CCC[C@@H]21 (racemic) |
| 550 | CC(C)(C)CCCN1C(=O)[C@@H]2[C@H](C1=O)[C@H](c1cc(-c3ccc(Cl)s3)on1)N1CCC[C@@H]21 (racemic) |
